Test [1] concerns PC-12. Description: MTT cell proliferation test, PC-12. It counts as cell-based. Particulars: PC-12 tumor cell line, cultured for 3 days, absorbance at 540 nm. As to the method:
(§1) Cells of each of three tumor cell lines, P388, PC-6 and PC-12, were inoculated into a 96 well microplate in an inoculum size of 5.0×10^2 cells/150 μl/well (P388), 5.0×10^3 cells/150 μl/well (PC-6) or 1.0×10^3 cells/150 μl/well (PC-12), and 50 μl/well of each sample was added to the plate 2 hours thereafter in the case of P388 or 24 hours thereafter in the case of the other two. Thereafter, the cells were cultured for 3 days and then 5 mg/ml solution of MTT [3-(4,5-dimethylthiazol-2-yl)-2,5-diphenyl-2H-tetrazolium bromide] was dispensed in 20 μl/well portions into wells of the microplate. Four hours thereafter, the culture medium was removed, 150 μl of dimethyl sulfoxide was added to each well and then absorbance at 540 nm was measured. The antitumor effect is shown as GI50 value (ng/ml) of each drug which decreases cell proliferation in each drug-added group to 50% of that in the control group.
In general terms: Tetrazolium assays rely on reduction of a dye to a coloured formazan, in cell work by metabolically active cells.

Test [2] deals with PC-6. Description: MTT cell proliferation test, PC-6. Format: cell-based. Particulars: PC-6 tumor cell line, cultured for 3 days, absorbance at 540 nm. The method, then: as §1
In test [3] the test system is P388. Description: MTT cell proliferation test, P388. Format: cell-based. Particulars: P388 tumor cell line, cultured for 3 days, absorbance at 540 nm. As to the method:
as §1

For test [4], the system named is digestive organ cancers, especially large bowel cancers. Particulars: clinical tests; cited from earlier work.

≈ marks a conversion by molar mass, not a printed value.

Take “9β-13-O-[(2R,3R)-3-(tert-Butoxycarbonylamino)-3-(2-furyl)-2-hydroxypropionyl]-4-O-cyclopropanecarbonyl-7-deoxy-4,10-dideacetyl-6,7-didehydro-9-dihydro-9,10-O-(2-morpholinoethylidene)baccatin III [Inventive Example 123]”: the GI50 value is 0.167 ng/mL in test [1], 0.366 ng/mL in test [2] and 0.0158 ng/mL in test [3].
Taken in the same sequence, the figures for “9β-13-O-[(2R,3R)-3-(tert-Butoxycarbonylamino)-2-hydroxy-3-(2-thienyl)propionyl]-10-deacetyl-7-deoxy-9-dihydro-9,10-O-(2-morpholinoethylidene)baccatin III [Inventive Example 98]” were 0.022 ng/mL, 0.0696 ng/mL and 0.0126 ng/mL.
In the case of “9β-13-O-[(2R,3S)-3-(tert-Butoxycarbonylamino)-2-hydroxy-3-phenylpropionyl]-4-O-cyclopropanecarbonyl-4,10-dideacetyl-9-dihydro-9,10-O-(2-morpholinoethylidene)baccatin III [Inventive Example 53]”, the GI50 value in test [1] is 0.0758 ng/mL; in test [2] it was 0.874 ng/mL; in test [3], 0.0128 ng/mL.
As for “9β-4-O-Butanoyl-13-O-[(2R,3R)-3-(tert-butoxycarbonylamino)-3-(2-furyl)-2-hydroxypropionyl]-4,10-dideacetyl-9-dihydro-9,10-O-(2-morpholinoethylidene)baccatin III [Inventive Example 22]”, the GI50 value came out at 0.181 ng/mL in test [1], 0.187 ng/mL in test [2] and 0.0193 ng/mL in test [3].
Taken in the same sequence, the figures for “9β-13-O-[(2R,3S)-3-(tert-Butoxycarbonylamino)-2-hydroxy-3-(2-pyridyl)propionyl]-4-O-cyclopropanecarbonyl-4,10-dideacetyl-9-dihydro-9,10-O-isopropylidenebaccatin III [Inventive Example 69]” were 0.0466 ng/mL, 0.0915 ng/mL and 0.0161 ng/mL.
Taken in the same sequence, the figures for “9β-13-O-[3-(tert-Butoxycarbonylamino)-2-hydroxy-2-methyl-3-(4-pyridyl)propionyl]-4-O-cyclopropanecarbonyl-7-deoxy-4,10-dideacetyl-6,7-didehydro-9-dihydro-9,10-O-isopropylidenebaccatin III [Inventive Example 121]” were 0.0498 ng/mL, 0.803 ng/mL and 0.00173 ng/mL.
On to “9β-13-O-[(2R,3R)-3-(tert-Butoxycarbonylamino)-3-(2-furyl)-2-hydroxypropionyl]-4,10-dideacetyl-9-dihydro-9,10-O-(2-morpholinoethylidene)-4-O-propionylbaccatin III [Inventive Example 25]”, for which the GI50 value in test [1] was 0.234 ng/mL; in test [2], 1.31 ng/mL; in test [3] it was 0.0549 ng/mL.
“9β-13-O-[3-(tert-Butoxycarbonylamino)-2-hydroxy-2-methyl-3-(4-pyridyl)propionyl]-4,10-dideacetyl-9-dihydro-9,10-O-isopropylidene-4-O-propionylbaccatin III [Inventive Example 90]”: the GI50 value in test [1] was 0.0943 ng/mL; in test [2], 0.209 ng/mL; in test [3], 0.0519 ng/mL.
Take “9β-13-O-[3-(tert-Butoxycarbonylamino)-2-hydroxy-2-methyl-3-(4-pyridyl)propionyl]-10-deacetyl-7-deoxy-9-dihydro-9,10-O-isopropylidenebaccatin III [Inventive Example 95]”: the GI50 value in test [1] is 0.0121 ng/mL; in test [2], 0.0992 ng/mL; in test [3] it was 0.0034 ng/mL.
Taken in the same sequence, the figures for “9β-13-O-[(2R,3R)-3-(tert-Butoxycarbonylamino)-3-(2-furyl)-2-hydroxypropionyl]-10-deacetyl-7-deoxy-9-dihydro-9,10-O-(2-morpholinoethylidene)baccatin III [Inventive Example 79]” were 0.0264 ng/mL, 0.0673 ng/mL and 0.00689 ng/mL.
Take “9β-13-O-[3-(tert-Butoxycarbonylamino)-2-hydroxy-2-methyl-3-(4-pyridyl)propionyl]-4-O-cyclopropanecarbonyl-4,10-dideacetyl-9-dihydro-9,10-O-isopropylidenebaccatin III [Inventive Example 60]”: the values for the GI50 value in test [1], in test [2] and in test [3] were 0.0698 ng/mL, 0.395 ng/mL and 0.0129 ng/mL, respectively.
“9β-13-O-[(2R,3R)-3-(tert-Butoxycarbonylamino)-3-(2-furyl)-2-hydroxypropionyl]-10-deacetyl-7-deoxy-9-dihydro-9,10-O-(2-dimethylaminoethylidene)baccatin III [Inventive Example 105]”: the GI50 value came to 0.0643 ng/mL in test [1], 0.190 ng/mL in test [2] and 0.0475 ng/mL in test [3].
Turning to “7α,9β-4-O-Butanoyl-13-O-[(2R,3R)-3-(tert-butoxycarbonylamino)-3-(2-furyl)-2-hydroxypropionyl]-7-deoxy-4,10-dideacetyl-9-dihydro-7-fluoro-9,10-O-(2-morpholinoethylidene)baccatin III [Inventive Example 81]”, the GI50 value in test [1] was 0.050 ng/mL; in test [2] it was 0.0604 ng/mL; in test [3], 0.0048 ng/mL.
`CC(=O)O[C@H]1C(=O)[C@@]2(C)[C@H]([C@H](OC(=O)c3ccccc3)[C@]3(O)C[C@H](OC(=O)[C@H](O)[C@@H](NC(=O)c4ccccc4)c4ccccc4)C(C)=C1C3(C)C)[C@]1(OC(C)=O)CO[C@@H]1C[C@@H]2O` [Taxol, reference compound]: the “efficacy on digestive organ cancers, especially large bowel cancers” value in test [4] is listed as “low efficacy”. The values for the GI50 value in test [1], in test [2] and in test [3] were 82.2 ng/mL (≈ 96.3 nM), 1.20 ng/mL (≈ 1.41 nM) and 4.36 ng/mL (≈ 5.11 nM), respectively.
For the compound “9β-13-O-[3-(tert-Butoxycarbonylamino)-2-hydroxy-2-methyl-3-(4-pyridyl)propionyl]-4,10-dideacetyl-9-dihydro-4-O-ethoxycarbonyl-9,10-O-isopropylidenebaccatin III [Inventive Example 101]”, the results for the GI50 value in test [1], in test [2] and in test [3] were 0.125 ng/mL, 0.409 ng/mL and 0.0301 ng/mL, respectively.
For “9β-13-O-[(2R,3S)-3-(tert-Butoxycarbonylamino)-2-hydroxy-3-(4-pyridyl)propionyl]-4-O-cyclopropanecarbonyl-4,10-dideacetyl-7-deoxy-9-dihydro-9,10-O-isopropylidenebaccatin III [Inventive Example 70]”, the values for the GI50 value in test [1], in test [2] and in test [3] were 0.0184 ng/mL, 0.160 ng/mL and 0.00137 ng/mL, respectively.
Taken in the same sequence, the figures for “9β-13-O-[(2R,3R)-3-(tert-Butoxycarbonylamino)-3-(2-furyl)-2-hydroxypropionyl]-4-O-cyclopropanecarbonyl-4,10-dideacetyl-9-dihydro-9,10-O-(2-morpholinoethylidene)baccatin III [Inventive Example 51]” were 0.0669 ng/mL, 0.354 ng/mL and 0.00754 ng/mL.
In the case of `CC(=O)O[C@@]12CO[C@@H]1C[C@H](O)[C@@]1(C)C(=O)[C@H](O)C3=C(C)[C@@H](OC(=O)[C@H](O)[C@@H](NC(=O)OC(C)(C)C)c4ccccc4)C[C@@](O)([C@@H](OC(=O)c4ccccc4)[C@H]21)C3(C)C` [Taxotere, reference compound], in test [4], the “efficacy on digestive organ cancers, especially large bowel cancers” value is listed as “low efficacy”. Also, the GI50 value is 19.1 ng/mL (≈ 23.6 nM) in test [1], 1.16 ng/mL (≈ 1.44 nM) in test [2] and 1.62 ng/mL (≈ 2.01 nM) in test [3].
On to “9β-13-O-[3-(tert-Butoxycarbonylamino)-3-(2-furyl)-2-hydroxy-2-methylpropionyl]-4-O-cyclopropanecarbonyl-4,10-dideacetyl-9-dihydro-9,10-O-(2-morpholinoethylidene)baccatin III [Inventive Example 57]”, for which the GI50 value turned out to be 0.0739 ng/mL in test [1], 0.734 ng/mL in test [2] and 0.0135 ng/mL in test [3].
Taken in the same sequence, the figures for “9β-13-O-[3-(tert-Butoxycarbonylamino)-2-hydroxy-2-methyl-3-(4-pyridyl)propionyl]-4-O-cyclopropanecarbonyl-4,10-dideacetyl-7-deoxy-9-dihydro-9,10-O-isopropylidenebaccatin III [Inventive Example 65]” were 0.0684 ng/mL, 0.278 ng/mL and 0.00509 ng/mL.

The values are drawn from patent US6545151B2, “Pentacyclic compound” (Daiichi Pharmaceutical Co., Ltd., priority 1995, dated 2003).
